Experimental data taken from US8633245B2, “PAI-1 inhibitor” (Institute of Medicinal Molecular Design, Inc., priority 2008, dated 2014).

Target: T1, recombinant human PAI-1 (Homo sapiens, UniProt P05121)
T1 construct: purchased Molecular Innovations, Inc
Assay: Test Example 1: human PAI-1 inhibitory activity (tPA fluorogenic substrate, pH 7.5 Tris buffer)
Type: biochemical
Settings: Tris buffer
Experimental: 50 mM Tris, 150 mM NaCl, 10 μg/ml BSA, 0.01% Tween80 (SIGMA-ALDRICH Corporation)

T1 sequence (P05121 24-402): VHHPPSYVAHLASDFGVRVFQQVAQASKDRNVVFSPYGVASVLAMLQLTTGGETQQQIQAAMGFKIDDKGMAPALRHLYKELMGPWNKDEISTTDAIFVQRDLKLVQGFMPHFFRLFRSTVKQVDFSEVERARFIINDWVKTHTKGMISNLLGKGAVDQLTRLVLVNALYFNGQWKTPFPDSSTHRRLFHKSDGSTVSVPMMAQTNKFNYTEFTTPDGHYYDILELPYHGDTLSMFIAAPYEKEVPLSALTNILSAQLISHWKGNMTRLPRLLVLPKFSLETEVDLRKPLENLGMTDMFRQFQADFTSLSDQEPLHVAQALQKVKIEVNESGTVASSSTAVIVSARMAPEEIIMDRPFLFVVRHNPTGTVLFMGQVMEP

SMILES | Inhibition Rate of PAI-1 Activity (%) (Compound Concentration 5 μM) | Inhibition Rate of PAI-1 Activity (%) (Compound Concentration 10 μM) | Inhibition Rate of PAI-1 Activity (%) (Compound Concentration 25 μM)
CC(C)(C)c1ccc(-c2ccc(N(Cc3ccccc3OC(F)(F)F)C(=O)C(=O)O)cc2)cc1 [Compound 202] | 70 | 94 | 98
CC(C)(C)c1ccc(-c2ccc(N(Cc3cccc(OC(F)(F)F)c3)C(=O)C(=O)O)cc2)cc1 [Compound 203] | 69 | 91 | 97
CC(C)(C)c1ccc(-c2ccc(N(Cc3ccc(Cl)cc3)C(=O)C(=O)O)cc2)cc1 [Compound 204] | 58 | 85 | >99
CC(C)(C)c1ccc(-c2ccc(N(Cc3ccc(C(F)(F)F)cc3)C(=O)C(=O)O)cc2)cc1 [Compound 205] | 50 | 80 | 98
CCC(CC)Oc1ccc(N(Cc2ccc(C(C)(C)C)cc2)C(=O)C(=O)O)c(-c2ccc(OC(F)(F)F)cc2)c1 [Compound 207] | 79 | 90 | 
CC(C)Oc1ccc(N(Cc2ccc(C(C)(C)C)cc2)C(=O)C(=O)O)c(-c2ccc(OC(F)(F)F)cc2)c1 [Compound 209] | 81 | 98 | 94
CCCOc1ccc(N(Cc2ccccc2)C(=O)C(=O)O)cc1-c1ccc(OC(F)(F)F)cc1 [Compound 210] | 39 | 70 | 94
CC(C)(C)c1ccc(CN(C(=O)C(=O)O)c2ccc(N3CCOCC3)c(-c3ccc(OC(F)(F)F)cc3)c2)cc1 [Compound 216] | 75 | 88 | 84
CC(C)(C)c1ccc(CN(C(=O)C(=O)O)c2ccc(N3CCCCC3)c(-c3ccc(OC(F)(F)F)cc3)c2)cc1 [Compound 217] | 86 | 84 | 
CC(C)(C)Oc1ccc(N(Cc2ccc(C(C)(C)C)cc2)C(=O)C(=O)O)cc1-c1ccc(OC(F)(F)F)cc1 [Compound 218] | 83 | 78 | 
CC(C)(C)c1ccc(CN(C(=O)C(=O)O)c2ccc(N3CCCCC3=O)c(-c3ccc(OC(F)(F)F)cc3)c2)cc1 [Compound 219] | 33 | 58 | 86
CC(c1ccc(C(C)(C)C)cc1)N(C(=O)C(=O)O)c1ccc(-c2ccc(OC(F)(F)F)cc2)cc1 (stereo not shown) [Compound 220] | 51 | 86 | 89
CCCOc1ccc(N(CCCc2ccccc2)C(=O)C(=O)O)c(-c2ccc(OC(F)(F)F)cc2)c1 [Compound 232] | 52 | 82 | 96
CCC(CC)Oc1ccc(N(CCCc2ccccc2)C(=O)C(=O)O)c(-c2ccc(OC(F)(F)F)cc2)c1 [Compound 237] | 75 | 92 | 
CC(C)Oc1ccc(N(CCCc2ccccc2)C(=O)C(=O)O)c(-c2ccc(OC(F)(F)F)cc2)c1 [Compound 239] | 43 | 80 | 98
CCCCCOc1ccc(-c2ccc(OC(F)(F)F)cc2)cc1N(CCCCCc1ccccc1)C(=O)C(=O)O [Compound 242] | 88 | 94 | 

SMILES | Inhibition Rate of PAI-1 Activity (%) (Compound Concentration 5 μM) | Inhibition Rate of PAI-1 Activity (%) (Compound Concentration 10 μM) | Inhibition Rate of PAI-1 Activity (%) (Compound Concentration 25 μM)
O=C(O)C(=O)N(CCCCc1ccccc1)c1ccc(N2CCOCC2)c(-c2ccc(OC(F)(F)F)cc2)c1 [Compound 243] | 42 | 64 | 89
CCCCCCOc1ccc(-c2ccc(OC(F)(F)F)cc2)cc1N(CCCCc1ccccc1)C(=O)C(=O)O [Compound 245] | 93 | 97 | 
Cc1cc(N(C)C)c(-c2ccc(OC(F)(F)F)cc2)cc1N(CCCCc1ccccc1)C(=O)C(=O)O [Compound 246] | 79 | 96 | 
O=C(O)C(=O)N(CCCCc1ccccc1)c1ccc(N2CCCCC2)c(-c2ccc(OC(F)(F)F)cc2)c1 [Compound 247] | 93 | 99 | 
CC(C)Oc1ccc(N(CCCCc2ccccc2)C(=O)C(=O)O)cc1-c1ccc(OC(F)(F)F)cc1 [Compound 248] | 60 | 89 | 96
CC(C)(C)Oc1ccc(N(CCCCc2ccccc2)C(=O)C(=O)O)cc1-c1ccc(OC(F)(F)F)cc1 [Compound 249] | 68 | 89 | 
O=C(O)C(=O)N(CCCCc1ccccc1)c1ccc(N2CCCCC2=O)c(-c2ccc(OC(F)(F)F)cc2)c1 [Compound 250] | 83 | 78 | 
O=C(O)CCc1cc(OCc2ccc(OC(F)(F)F)cc2)ccc1OCc1ccc(OC(F)(F)F)cc1 [Compound 404] | 14 | 31 | 84
CC(C)(C)c1ccc(COc2cc(/C=C/C(=O)O)cc(Oc3ccc(OC(F)(F)F)cc3)c2)cc1 [Compound 409] | 26 | 59 | 97
CC(C)(C)c1ccc(COc2cc(CCC(=O)O)cc(Oc3ccc(OC(F)(F)F)cc3)c2)cc1 [Compound 410] | 37 | 71 | 98
CC(C)(C)c1ccc(COc2ccc(Nc3ccc(OC(F)(F)F)cc3)cc2CCC(=O)O)cc1 [Compound 412] | 22 | 46 | 92
CC(C)(C)c1ccc(COc2ccc(OCc3ccc(OC(F)(F)F)cc3)cc2/C=C/C(=O)O)cc1 [Compound 413] | 38 | 66 | 84
CC(C)(C)c1ccc(COc2ccc(OCc3ccc(OC(F)(F)F)cc3)cc2CCC(=O)O)cc1 [Compound 414] | 33 | 67 | 96
CN(c1ccc(OC(F)(F)F)cc1)c1ccc(OCc2ccc(C(C)(C)C)cc2)c(CCC(=O)O)c1 [Compound 417] | 44 | 79 | 98
CC(C)(Nc1cc(-c2ccc(OC(F)(F)F)cc2)ccc1OCc1ccc(C(C)(C)C)cc1)C(=O)O [Compound 420] | 42 | 64 | 83

The next lines start with the values.

Inhibition Rate of PAI-1 Activity (%) (Compound Concentration 5 μM) | Inhibition Rate of PAI-1 Activity (%) (Compound Concentration 10 μM) | Inhibition Rate of PAI-1 Activity (%) (Compound Concentration 25 μM) | SMILES
29 | 63 | 86 | O=C(O)C(=O)N(CCCc1ccccc1)c1ccc(-c2ccc(OC(F)(F)F)cc2)cc1 [Compound 224]
27 | 50 | 88 | O=C(O)C(=O)N(CCCCc1ccccc1)c1ccc(-c2ccc(OC(F)(F)F)cc2)cc1 [Compound 225]
45 | 71 | 95 | O=C(O)C(=O)N(CCCCCc1ccccc1)c1ccc(-c2ccc(OC(F)(F)F)cc2)cc1 [Compound 228]
48 | 80 | 94 | CCCOc1ccc(N(CCCc2ccccc2)C(=O)C(=O)O)cc1-c1ccc(OC(F)(F)F)cc1 [Compound 229]
59 | 83 | 96 | CCCOc1ccc(-c2ccc(OC(F)(F)F)cc2)cc1N(CCCc1ccccc1)C(=O)C(=O)O [Compound 234]
66 | 89 | 93 | CCCCOc1ccc(-c2ccc(OC(F)(F)F)cc2)cc1N(CCCc1ccccc1)C(=O)C(=O)O [Compound 235]
61 | 86 | 95 | CCCOc1ccc(-c2ccc(OC(F)(F)F)cc2)cc1N(CCCCc1ccccc1)C(=O)C(=O)O [Compound 236]
62 | 91 | 95 | CCCOc1ccc(N(CCCCc2ccccc2)C(=O)C(=O)O)cc1-c1ccc(OC(F)(F)F)cc1 [Compound 240]
71 | 91 |  | CCCCCOc1ccc(N(CCCCc2ccccc2)C(=O)C(=O)O)cc1-c1ccc(OC(F)(F)F)cc1 [Compound 244]
3 | 6 | 34 | CCCCCCN(C(=O)C(=O)O)c1ccc(Oc2ccc(OC(F)(F)F)cc2)cc1 [Compound 252]
9 | 16 | 36 | O=C(O)C(=O)N(c1ccc(-c2ccc(OC(F)(F)F)cc2)cc1)C1CCCCC1 [Compound 253]
3 | 9 | 31 | CCCCCN(C(=O)C(=O)O)c1ccc(-c2ccc(OC(F)(F)F)cc2)cc1 [Compound 254]
2 | 8 | 23 | CC(C)(C)CN(C(=O)C(=O)O)c1ccc(-c2ccc(OC(F)(F)F)cc2)cc1 [Compound 255]
